Test results reported in publication PMC3315515, “Identification of Novel Mt-Guab2 Inhibitor Series Active against M. tuberculosis” (PLoS ONE, 2012).
Values after ≈ are worked out from the molar mass of the structure shown. Values joined by “and” are separate entries in the source; they are usually repeats but may differ in a detail not shown here. Equal entries are not always repeated. “Also recorded” adds a separate entry of the source. Where two headings read alike, the source gives them in different places.

Experiments:
[1] = target: Mt-GuaB2 (Mycobacterium tuberculosis, UniProt P9WKI7); assay: Mt-GuaB2 spectrophotometric assay (NADH formation at 340 nm), inhibitor kinetics; format: biochemical
Sequence of Mt-GuaB2 (P9WKI7 whole entry, looked up): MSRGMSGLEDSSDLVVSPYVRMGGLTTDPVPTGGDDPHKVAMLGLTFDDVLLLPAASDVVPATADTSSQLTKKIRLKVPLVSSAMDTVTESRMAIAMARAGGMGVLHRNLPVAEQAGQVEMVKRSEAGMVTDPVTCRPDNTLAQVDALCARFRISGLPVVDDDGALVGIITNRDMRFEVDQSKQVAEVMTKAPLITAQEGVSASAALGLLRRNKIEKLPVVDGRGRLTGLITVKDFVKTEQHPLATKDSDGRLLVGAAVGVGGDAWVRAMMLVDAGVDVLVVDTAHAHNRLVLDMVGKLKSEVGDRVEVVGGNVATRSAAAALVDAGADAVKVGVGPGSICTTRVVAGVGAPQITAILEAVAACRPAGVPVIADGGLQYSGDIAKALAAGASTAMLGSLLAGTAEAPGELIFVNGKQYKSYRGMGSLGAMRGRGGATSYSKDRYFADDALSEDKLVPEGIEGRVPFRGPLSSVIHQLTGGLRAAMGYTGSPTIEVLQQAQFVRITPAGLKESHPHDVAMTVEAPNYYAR

[2] = system: M. tuberculosis H37Rv; details: cited from earlier work
[3] = system: M. smegmatis mc^2 155; assay: microbe, parasite or virus in culture; format: cell-based; details: for M. smeg MIC90: Table 2, highest concentration tested 128 µg/ml
[4] = system: M. smegmatis overexpressing Mt-GuaB2; assay: microbe, parasite or virus in culture; format: cell-based
[5] = system: M. tuberculosis Erdman strain; details: for Log 10 Protection, spleen / Log 10 Protection, lung: versus untreated controls d24, INH 25, 7759844 300 mg/kg/day
[6] = system: M. smegmatis pVV16; assay: MIC of M. smegmatis with empty pVV16 vector control; format: cell-based; details: Mycolicibacterium smegmatis, Figure 4, vector alone control
[7] = acute maximum tolerated dose (MTD) test; details: single dose 100, 300, 500 mg/kg by gavage in 0.5% methyl cellulose, seven days observation, C57BL/6 mice
[8] = system: M. smegmatis; assay: bactericidal activity against M. smegmatis (colony counts after 24 hours exposure); format: cell-based; details: Mycolicibacterium smegmatis, at least 99% reduction of viable counts, read-out: minimum bactericidal concentration (MBC)
[9] = system: S. pyogenes IMPDH; details: ref [29], [34]; cited from earlier work
[10] = system: NC(=O)c1ccc[n+]([C@@H]2O[C@H](COP(=O)([O-])OP(=O)(O)OC[C@H]3O[C@@H](n4cnc5c(N)ncnc54)[C@H](O)[C@@H]3O)[C@@H](O)[C@H]2O)c1; assay: purified protein, by the assay type; details: other: variable substrate, fixed saturating co-substrate, 200 µl assay; pH 8.5; 37.0 °C
[11] = Table 2, varied IMP, fixed saturating NAD+ 2.8 mM
[12] = Table 2, Life Chemicals set, values without footnote a, previous screens ref [35]–[37]
[13] = Table 2, values with footnote a, ref Reynolds et al., 2011

| Compound | IMP αK i [1, 11] [µM] | M. tb MIC90 [2, 12] [µg/mL] | M. smeg MIC90 ([3]; TSB agar, 37°C, 3 days) [µg/mL] | other results |
| --- | --- | --- | --- | --- |
| O=C(Nc1nnc(-c2ccccc2Cl)o1)c1nc2ccccc2s1 [F1374-0033] | 60.9 | 1.75 | 8 |  |
| COc1ccc(OC(C)C(=O)Nc2ccc(I)cc2)cc1 (centres unmarked) [compound 7759844] |  |  |  | MIC99 ([4]; Mycolicibacterium smegmatis, Figure 4, Mt-GuaB2 overexpression construct in pVV16): 48 µg/mL (≈ 121 µM); increase in MIC of Mt-GuaB2 overexpressing strain ([4]; compared with pVV16 vector control and wild type M. smegmatis): 6 fold; Log 10 Protection, spleen ([5]; spleen): 0.84 log10 protection units; Activity ([5]; spleen, 300 mg/kg/day): slightly active; IMP αK i ([1]; Table 1, varied IMP, fixed saturating NAD+ 2.8 mM): 0.603 µM; IMP αK i ([1]; Table 3, analogs of lead scaffold): 0.603 µM; K i values ([1]; with respect to both substrates IMP and NAD+): nanomolar range; MIC99 [6]: 8 µg/mL; tolerability, acute single dose [7]: no dose related adverse effects; also recorded: well tolerated with no acute adverse effects; also recorded: not toxic; M. tb MIC90 ([2]; Table 1, Chembridge compounds, M. tuberculosis H37Rv, previous screens ref [35]–[37]): 0.63 µg/mL; M. tb MIC90 ([2]; Table 3, analogs of lead scaffold, previous screens ref [35]–[37]): 0.633 µg/mL; MBC [8]: 32 µg/mL (≈ 80.6 µM); MIC90 ([3]; Mycolicibacterium smegmatis, MC^2155, 72 h, Table 1, TSB agar, 37°C, 3 days, read-out: M. smeg MIC90): 8 µg/mL (≈ 20.1 µM); MIC99 ([3]; Mycolicibacterium smegmatis, MC^2155, Figure 4, M. smegmatis mc^2 155): 8 µg/mL (≈ 20.1 µM) |
| O=C(Nc1nnc(-c2ccc(Cl)s2)o1)c1nc2ccccc2s1 [F1374-1083] | 4.86 | 4.81 | >128 |  |
| Cc1ccc(C)c(-c2nnc(NC(=O)c3cccc4ccccc34)o2)c1 [F2518-0386] | 22.6 |  |  | M. tb MIC90 [2, 13]: 0.41 µg/ml and 0.41 ^a µg/ml |
| CC(C)c1ccc(OCC(=O)Nc2nccs2)cc1 [F1685-0077] | 229.3 | 6.88 | >128 |  |
| O=C(Nc1nnc(-c2cccs2)o1)c1nc2ccccc2s1 [F1374-0978] | 28.3 |  | >128 | M. tb MIC90 [2, 13]: 2.98 ^a µg/ml |
| Cc1ccc(-c2nnc(NC(=O)c3nc4ccccc4s3)o2)c(C)c1 [F2518-0183] | 57.1 |  | >128 | M. tb MIC90 [2, 13]: 1.76 ^a µg/ml |
| COc1cc2ccccc2cc1C(=O)Nc1nnc(-c2ccc(F)cc2)o1 [F1374-0205] | 35.3 | 5.59 | >128 |  |
| NC(=O)c1ccc[n+]([C@@H]2O[C@H](COP(=O)([O-])OP(=O)(O)OC[C@H]3O[C@@H](n4cnc5c(N)ncnc54)[C@H](O)[C@@H]3O)[C@@H](O)[C@H]2O)c1 [NAD^+, nicotinamide adenine dinucleotide] |  |  |  | Km [9]: ~1180 µM |
| COc1ccccc1-c1nnc(NC(=O)c2sc3ccccc3c2Cl)o1 [F1374-0253] | 11.2 | 5.30 | >128 | pattern of inhibition with respect to IMP [1]: uncompetitive inhibition; pattern of inhibition with respect to NAD+ [1]: noncompetitive inhibition; pattern of inhibition with respect to NAD ([1]; Table 2): NC ((NC) Noncompetitive); Ki ([1]; Table 2, varied NAD+, fixed saturating IMP […], read-out: NAD K i): 435 µM |
| Mt-GuaB2 (Mycobacterium tuberculosis H37Rv) |  |  |  | Km [10]: 699.4 ± 63.70 µM |
| O=C(Nc1nnc(-c2ccccc2)o1)c1cc(-c2cccs2)nc2ccccc12 [F1374-0885] | 19.0 | 0.72 | 2 |  |
| O=C(Nc1nnc(-c2ccc(Br)cc2)o1)c1sc2ccccc2c1Cl [F2518-0484] | 35.5 | 6.70 | 3 |  |
| NNC(=O)c1ccncc1 [Isoniazid, isoniazid, reference compound] |  |  |  | Log 10 Protection, lung ([5]; 300 mg/kg/day): 2.7 log10 protection units; Log 10 Protection, lung ([5]; listed as INH, 300 mg/kg/day): 2.70 log10 protection units; Log 10 Protection, spleen ([5]; spleen, 300 mg/kg/day): 4.0 log10 protection units; Log 10 Protection, spleen ([5]; spleen, listed as INH, 300 mg/kg/day): 4.04 log10 protection units |
| Cc1ccc(C)c(-c2nnc(NC(=O)C3COc4ccccc4O3)o2)c1 (centres unmarked) [F2518-0401] | 501.9 | 1.18 | 16 |  |
| Cc1ccc(C)c(-c2nnc(NC(=O)COc3ccccc3)o2)c1 [F2518-0418] | 328.7 | 2.24 | 32 |  |
| COc1cc2ccccc2cc1C(=O)Nc1nnc(-c2cc(C)ccc2C)o1 [F2518-0413] | 36.4 | 1.23 | >128 |  |
| CCOc1cc(-c2nnc(NC(=O)c3cc4ccccc4cc3OC)o2)cc(OCC)c1OCC [F2517-0198] | 19.1 | 2.68 | >128 |  |
| Cc1ccc(-c2nnc(NC(=O)COc3ccccc3)o2)c(C)c1 [F2518-0274] | 765.4 | 5.50 | 20 |  |
| O=C(CS(=O)(=O)c1ccccc1)Nc1nc(-c2ccc3c(c2)CCCC3)cs1 [F2536-1573] | 79.0 | 1.02 | >128 |  |
